How the values were obtained:
[1] = tested on: K/1 = ras^K Transformed NRKE Cells; conditions: K/1 = ras^K transformed NRKE cells, compared with normal NRKE cells
[2] = tested on: H/1.2 = ras^H Transformed NRKE Cells; conditions: H/1.2 = ras^H transformed NRKE cells, compared with normal NRKE cells
[3] = tested on: N/4.2-NRKE transformed by the human ras^N gene; conditions: N/4.2 = ras^N transformed NRK cells, compared with normal NRKE cells
[4] = tested on: 3LL = Lewis Lung Carcinoma Cells; conditions: 3LL = Lewis lung carcinoma cells, compared with normal NRKE cells
Leukemia cell lines = assay: NCI in vitro anticancer screen (SRB), leukemia subpanel; conditions: 48 hours exposure; average percent growth over the cell lines
Description: (§1) Compounds chosen for the program are initially tested in an in vitro anticancer screen. A total of fifty-five human tumor cell lines, derived from nine cancer types (lung, colon, melanoma, renal, ovarian, brain, prostate, breast and leukemia), are used in this screen. The tumor cells are inoculated over a series of standard 96-well microtiter plates on day 0. These cells are then preincubated on the microtiter plates for 24 hours. The test compounds are added to the wells in five 10-fold dilutions starting from the highest soluble concentration. Each compound is tested against every cell line in the panel. The compounds are incubated for 48 hours with the tumor cell lines. At the termination of the assay, the cells are fixed in situ, washed, and dried. Sulforhodamine B (SRB), a pink anionic dye that binds to the basic amino acids of trichloroacetic acid-fixed cells, is added. The cells are washed again, and the remaining dye is a function of the adherent cell mass. The bound stain is solubilized and measured spectrophotometrically. The data are entered from automatic reading devices into a computer for subsequent storage and analysis.
(§2) The measured effect of each test compound on the cell lines is calculated according to one or the other of the following two expressions:
(§3) If (Mean ODtest−Mean ODtzero)□0, then PG=100×(Mean ODtest−Mean ODtzero)/(Mean ODctrl−Mean ODtzero);
(§4) If (Mean ODtest−Mean ODtzero)<0, then PG=100×(Mean ODtest−Mean ODtzero)/Meantzero;
(§5) First, a data sheet is provided which lists, for each cell line, the Mean ODtzero, the Mean ODctrl, the Mean ODtest for each of the five concentrations, the calculated PGs for each concentration, and the response parameters G150, TGI, and LC50.
(§6) Third, mean graphs at each of the principal response parameters (GI50, TGI, and LC50) are provided. […] Since the bar scale is logarithmic, a bar two units to the right implies the compound achieved the response parameter (e.g., GI50) for the cell line at a concentration 1/100 the mean concentration required over all cell lines, and thus the cell line is unusually sensitive to that compound. Bars extending to the left correspondingly imply sensitivity less than the mean. Thus, the mean graphs facilitate visual scanning of data for potential patterns of selectivity for particular cell lines or for particular subpanels with respect to a selected response parameter.

Melanoma cell lines = assay: NCI in vitro anticancer screen (SRB), melanoma subpanel; conditions: 48 hours exposure; average percent growth over the cell lines
Description: as §1, §2, §3, §4, §5, §6

CNS Cancer cell lines = assay: NCI in vitro anticancer screen (SRB), CNS cancer subpanel; conditions: 48 hours exposure; average percent growth over the cell lines
Description: as §1, §2, §3, §4, §5, §6

Colon Cancer cell lines = assay: NCI in vitro anticancer screen (SRB), colon cancer subpanel; conditions: 48 hours exposure; average percent growth over the cell lines
Description: as §1, §2, §3, §4

Renal Cancer cell lines = assay: NCI in vitro anticancer screen (SRB), renal cancer subpanel; conditions: 48 hours exposure; average percent growth over the cell lines
Description: as §1, §2, §3, §4, §5, §6

Breast Cancer cell lines = assay: NCI in vitro anticancer screen (SRB), breast cancer subpanel; conditions: 48 hours exposure; average percent growth over the cell lines
[5] = tested on: Ovarian Cancer cell lines; assay: NCI in vitro anticancer screen (SRB), ovarian cancer subpanel; conditions: 48 hours exposure; average percent growth over the cell lines
Description: as §1, §2, §3, §4

[6] = tested on: Prostate Cancer cell lines; assay: NCI in vitro anticancer screen (SRB), prostate cancer subpanel; conditions: 48 hours exposure; average percent growth over the cell lines
[7] = tested on: Non-Small Cell Lung Cancer cell lines; assay: NCI in vitro anticancer screen (SRB), non-small cell lung cancer subpanel; conditions: 48 hours exposure; average percent growth over the cell lines
HIV-RT = HIV-RT (Human immunodeficiency virus type 1 group M subtype B, UniProt P03366); assay: HIV-RT inhibition by AZT-TP, lavendamycin analogs and their combinations; type: biochemical; set-up: unit of the concentration uncertain; conditions: LA Conc. 0 (unit uncertain); for % inh. ave.: average of three trials
Description: AZT-TP was used for these in vitro studies since AZT is naturally phosphorylated in vivo.
The results of these tests are given in Table XVIII and XIX below, where the percent inhibition of HIV-RT activity is reported for three different trials and then averaged in the seventh column. […] .

[8] = tested on: K/1-NRKE tumor (ras^K-transformed NRKE cells); conditions: mouse, in vivo
[9] = AZT-TP Conc. 0.01 (unit uncertain)
[10] = AZT-TP Conc. 0.05 (unit uncertain)

Row | SMILES | Differential Index K/1 [1] | Differential Index H/1.2 [2] | Differential Index N/4.2 [3] | Differential Index 3LL [4] | also measured
1 | CCCCCCCCOC(=O)c1cc2c([nH]c3ccccc32)c(-c2ccc3c(n2)C(=O)C(NC=O)=CC3=O)n1 [Compound 56, 7-N-formyldemethyllavendamycin octyl ester] | >1.57 | i1.00 | >1.5 | >1.03 | Activity (Average PG for highest dose tested) Leukemia (Leukemia cell lines): −29.7%; Activity (Average PG for highest dose tested) Melanoma (Melanoma cell lines): −39.9%; Activity (Average PG for highest dose tested) CNS Cancer (CNS Cancer cell lines): −36.8%; Activity (Average PG for highest dose tested) Colon Cancer (Colon Cancer cell lines): −30.0%; Activity (Average PG for highest dose tested) Renal Cancer (Renal Cancer cell lines): −51.3%; Activity (Average PG for highest dose tested) Breast Cancer (Breast Cancer cell lines): −42.3%; Activity (Average PG for highest dose tested) Ovarian Cancer [5]: −57.3%; Activity (Average PG for highest dose tested) Prostate Cancer [6]: +14.0%; Activity (Average PG for highest dose tested) Non-Small Cell Lung Cancer [7]: −28.8%
2 | CCCCCCCCOC(=O)c1cc2c([nH]c3ccccc32)c(-c2ccc3c(n2)C(=O)C(N)=CC3=O)n1 [Compound 57, demethyllavendamycin octyl ester] | – | – | – | – | Activity (Average PG for highest dose tested) Leukemia (Leukemia cell lines): +90.8%; Activity (Average PG for highest dose tested) Melanoma (Melanoma cell lines): +89.4%; Activity (Average PG for highest dose tested) CNS Cancer (CNS Cancer cell lines): +81.0%; Activity (Average PG for highest dose tested) Colon Cancer (Colon Cancer cell lines): +100.3%; Activity (Average PG for highest dose tested) Renal Cancer (Renal Cancer cell lines): +68.7%; Activity (Average PG for highest dose tested) Breast Cancer (Breast Cancer cell lines): +96.0%; Activity (Average PG for highest dose tested) Ovarian Cancer [5]: +89.3%; Activity (Average PG for highest dose tested) Prostate Cancer [6]: +94.5%; Activity (Average PG for highest dose tested) Non-Small Cell Lung Cancer [7]: +89.8%
3 | CC(=O)NC1=CC(=O)c2ccc(-c3nc(C(=O)O)cc4c3[nH]c3ccccc34)nc2C1=O [Compound 2] | 2.14 | 1.36 | 1.50 | 0.38 | Activity (Average PG for highest dose tested) Leukemia (Leukemia cell lines): −34.7%; Activity (Average PG for highest dose tested) Melanoma (Melanoma cell lines): −53.7%; Activity (Average PG for highest dose tested) CNS Cancer (CNS Cancer cell lines): −26.6%; Activity (Average PG for highest dose tested) Colon Cancer (Colon Cancer cell lines): −43.6%; Activity (Average PG for highest dose tested) Renal Cancer (Renal Cancer cell lines): −74.6%; Activity (Average PG for highest dose tested) Breast Cancer (Breast Cancer cell lines): −32.6%; Activity (Average PG for highest dose tested) Ovarian Cancer [5]: −62.7%; Activity (Average PG for highest dose tested) Prostate Cancer [6]: −45.5%; Activity (Average PG for highest dose tested) Non-Small Cell Lung Cancer [7]: −27.9%
4 | CC(C)C(=O)NC1=CC(=O)c2ccc(C=O)nc2C1=O [Compound 25] | >1.5 | ˜1.0 | ˜1.0 | >3.3 | –
5 | CCCCOC(=O)c1cc2c([nH]c3ccc(F)cc32)c(-c2ccc3c(n2)C(=O)C(NC(C)=O)=CC3=O)n1 [Compound 5] | 1.88 | 0.88 | 0.74 | 0.29 | –
6 | Cc1cn([C@H]2C[C@H](N=[N+]=[N-])[C@@H](COP(=O)(O)OP(=O)(O)OP(=O)(O)O)O2)c(=O)[nH]c1=O [AZT-TP, 3′-azido-3′-deoxythymidine 5′-triphosphate, reference compound] | – | – | – | – | % inh. Trial 1 (HIV-RT; [9]): 27%; % inh. Trial 2 (HIV-RT; [9]): 27%; % inh. Trial 3 (HIV-RT; [9]): 29%; % inh. ave. (HIV-RT; [9]): 27.7%; % inh. Trial 1 (HIV-RT; [10]): 51%; % inh. Trial 2 (HIV-RT; [10]): 52%; % inh. Trial 3 (HIV-RT; [10]): 49%; % inh. ave. (HIV-RT; [10]): 50.7%
7 | CC(C)CCOC(=O)c1cc2c([nH]c3ccccc32)c(-c2ccc3c(n2)C(=O)C(NC(=O)CCl)=CC3=O)n1 [Compound 9, 7-N-CHLOROACETYLDEMETHYLLAVENDAMYCIN ISOAMYL ESTER] | 2.41 | 1.02 | 1.13 | 0.42 | –
8 | CCCCCCCCOC(=O)c1cc2c([nH]c3ccccc32)c(-c2ccc3c(n2)C(=O)C(NC(=O)CCl)=CC3=O)n1 [Compound 10, 7-N-CHLOROACETYLDEMETHYLLAVENDAMYCIN OCTYL ESTER] | >2.2 | i1.0 | i1.0 | i1.0 | –
9 | CCCC(=O)NC1=CC(=O)c2ccc(-c3nc(C(=O)OCCC(C)C)cc4c3[nH]c3ccccc34)nc2C1=O [Compound 13, 7-N-BUTYRYLDEMETHYLLAVENDAMYCIN ISOAMYL ESTER] | 1.67 | 2.70 | 1.53 | 0.42 | –
10 | Cc1ccc2c(n1)C(=O)C(N)=C(Cl)C2=O [Compound 59, 7-Amino-6-Chloro-2-Methylquinoline-5,8-Dione] | 1.25 | 1.25 | 1.14 | 0.63 | –
11 | CCCCOC(=O)c1cc2c([nH]c3ccccc32)c(-c2ccc3c(n2)C(=O)C(NC(=O)CCC)=CC3=O)n1 [Compound 12] | 1.32 | 1.61 | 0.94 | 0.29 | –
12 | CCCC(=O)NC1=CC(=O)c2ccc(-c3nc(C(=O)OC)c(C)c4c3[nH]c3ccccc34)nc2C1=O [Compound 11, 7-N-BUTYRYLLAVENDAMYCIN METHYL ESTER] | 0.97 | 0.80 | 0.76 | 0.39 | –
13 | Cc1ccc2c(n1)C(=O)C(NC(=O)C(C)C)=CC2=O [Compound 29] | 0.2 | 1.03 | 1.3 | 2.1 | –
14 | CC(=O)NC1=CC(=O)c2ccc(-c3nccc4c3[nH]c3ccccc34)nc2C1=O [Compound 6] | 0.91 | 1.00 | 0.82 | 0.13 | –
15 | COC(=O)c1nc(-c2ccc3c(n2)C(=O)C(NC(=O)CCl)=CC3=O)c2[nH]c3ccccc3c2c1C [Compound 7, 7-N-CHLOROACETYLLAVENDAMYCIN METHYL ESTER] | 0.73 | 1.00 | 0.76 | 0.29 | –
16 | CCCCCCCCOC(=O)c1cc2c([nH]c3ccccc32)c(-c2ccc3c(n2)C(=O)C(NC(=O)CCC)=CC3=O)n1 [Compound 14, 7-N-BUTYRYLDEMETHYLLAVENDAMYCIN OCTYL ESTER] | >10.0 | >2.06 | >2.2 | >2.06 | –
17 | O=P1(N(CCCl)CCCl)NCCCO1 (centres unmarked) [CY, cyclophosphamide, reference compound] | – | – | – | – | Number Dead Number Treated ([8]; female, CD1 nu/nu): 0/7; Percent Wt. Change (g) [8]: −3.0 ″ 0.09 g
18 | CCCCOC(=O)c1cc2c([nH]c3ccccc32)c(-c2ccc3c(n2)C(=O)C(NC(=O)C(C)C)=CC3=O)n1 [Compound 15] | 2.25 | 1.48 | 1.80 | 1.00 | –
19 | CCCCOC(=O)c1cc2c([nH]c3ccc(OC)cc32)c(-c2ccc3c(n2)C(=O)C(NC(C)=O)=CC3=O)n1 [Compound 4] | 1.14 | 1.19 | 1.14 | <0.75 | –
